US20200254065A1, “LONG-ACTING GLP-2 ANALOGS” (OPKO Biologics Ltd., priority 2019, published 2020)
Square brackets hold non-standard residues; d marks the D form. Ends that are not written are not given here. Peptide text beside a SMILES is read from it. Nle = CCCC[C@H](N)C(=O)O

Assays:
[1] = PK after single IV injection in rats; type: in vivo; conditions: rat, in vivo, iv, 2 mg/kg
Text: Blood samples were collected at 0.5, 2, 4, 8, 12, 24, 36, 48, 72, 96- and 120-hours post-dose administration.

[2] = PK after single SC injection in rats (LC-MS/MS); conditions: rat, in vivo, 2 mg/kg
Experimental: To support the pharmacodynamic effects of V4 and Cys-FMS-V4 as detailed in Example 9, a pharmacokinetic analysis was also conducted. In this study (Study reference 15204), all animals were injected SC on Day 1 with 2 mg/kg peptide content of V4, Cys-FMS-V4 and Apraglutide. Blood samples were collected at 2, 8, 12, 24, 36, 48, 72, 96, 120 hours, and Days 7, 8, 9, 10, 11, 12, 13 and 14 post-dose administration and subsequently taken to LC-MS/MS analysis to determine plasma levels of each compound. For Cys-FMS-V4, a 2-analyte method was applied to determine the plasma concentrations of both the full conjugate and the V4 that was hydrolyzed from it (V4 hydrolyzed). Plasma concentrations (μM), as measured by using the LC-MS/MS method, of V4 peptide, Cys-FMS-V4, hydrolyzed V4, and Apraglutide are presented in FIG. 17.

GLP-2 receptor [3] = target: T1, GLP-2 receptor (Homo sapiens, UniProt O95838); assay: GLP-2 receptor Cell Based Assay (CBA)
T1 sequence (O95838 1-553): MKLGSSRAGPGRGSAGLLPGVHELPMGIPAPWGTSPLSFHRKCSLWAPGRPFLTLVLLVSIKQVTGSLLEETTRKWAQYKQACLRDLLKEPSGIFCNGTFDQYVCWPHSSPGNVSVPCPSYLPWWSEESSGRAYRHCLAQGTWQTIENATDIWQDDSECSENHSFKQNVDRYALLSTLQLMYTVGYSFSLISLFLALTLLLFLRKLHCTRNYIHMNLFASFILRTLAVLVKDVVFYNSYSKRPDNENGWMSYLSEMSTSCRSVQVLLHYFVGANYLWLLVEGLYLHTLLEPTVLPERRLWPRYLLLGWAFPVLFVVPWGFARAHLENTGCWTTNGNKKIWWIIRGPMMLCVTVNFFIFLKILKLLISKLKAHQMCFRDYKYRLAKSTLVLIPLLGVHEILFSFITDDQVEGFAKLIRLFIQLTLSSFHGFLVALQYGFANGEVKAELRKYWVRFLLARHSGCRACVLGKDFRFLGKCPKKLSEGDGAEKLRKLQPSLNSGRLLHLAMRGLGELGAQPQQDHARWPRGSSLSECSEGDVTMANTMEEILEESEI
Experimental: Evaluation of in vitro binding affinity of the different peptides was assessed by using Cell Based Assay (CBA) in the presence of escalating doses of the different peptides.

[4] = Stability of GLP-2 analogues on incubation at 37° C. (appearance, O.D. reading, RP-HPLC); type: physicochemical; conditions: following 48 h incubation at 37° C.; for Stability via RP-HPLC main peak: change of main peak
Experimental: The GLP-2 analogues were tested for stability via appearance, O.D. reading (A.280, and A.325) and RP-HPLC (purity, and peak area) following t=0, 1 day, and 48 h incubation at 37° C.

GLP-2 receptor [5] = target: T2, GLP-2 receptor (UniProt O95838 1-553, limits assumed); assay: cell-based or functional assay
T2 sequence (looked up): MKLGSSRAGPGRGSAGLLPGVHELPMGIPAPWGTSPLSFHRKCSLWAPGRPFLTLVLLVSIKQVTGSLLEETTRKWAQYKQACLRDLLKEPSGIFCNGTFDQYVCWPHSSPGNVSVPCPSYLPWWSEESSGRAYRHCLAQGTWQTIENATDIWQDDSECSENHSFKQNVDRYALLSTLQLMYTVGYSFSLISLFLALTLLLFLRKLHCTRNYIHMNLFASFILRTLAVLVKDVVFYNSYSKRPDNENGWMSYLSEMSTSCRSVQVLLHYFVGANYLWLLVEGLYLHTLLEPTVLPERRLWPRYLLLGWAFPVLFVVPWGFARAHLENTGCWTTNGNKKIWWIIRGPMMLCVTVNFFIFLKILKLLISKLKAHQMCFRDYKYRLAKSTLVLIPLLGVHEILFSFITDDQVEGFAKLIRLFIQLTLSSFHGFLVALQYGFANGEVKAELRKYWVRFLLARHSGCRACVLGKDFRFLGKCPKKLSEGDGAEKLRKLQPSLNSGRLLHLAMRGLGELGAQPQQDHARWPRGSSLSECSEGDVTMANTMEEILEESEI

[6] = Table 8, average of 3 independent CBA

CCCC[C@H](NC(=O)[C@H](CCC(=O)O)NC(=O)[C@H](CC(=O)O)NC(=O)[C@H](CO)NC(=O)[C@H](Cc1ccccc1)NC(=O)[C@H](CO)NC(=O)CNC(=O)[C@H](CCC(=O)O)NC(=O)CNC(=O)[C@@H](N)Cc1c[nH]cn1)C(=O)N[C@@H](CC(N)=O)C(=O)N[C@H](C(=O)N[C@H](C(=O)N[C@@H](CC(C)C)C(=O)N[C@@H](CC(=O)O)C(=O)N[C@@H](CC(C)C)C(=O)N[C@@H](CC(C)C)C(=O)N[C@@H](C)C(=O)N[C@@H](C)C(=O)N[C@@H](CCCNC(=N)N)C(=O)N[C@@H](CC(=O)O)C(=O)N[C@@H](Cc1ccccc1)C(=O)N[C@H](C(=O)N[C@@H](CC(N)=O)C(=O)N[C@@H](Cc1c[nH]c2ccccc12)C(=O)N[C@@H](CC(C)C)C(=O)N[C@H](C(=O)N[C@@H](CCC(N)=O)C(=O)N[C@H](C(=O)N[C@@H](CCCCN)C(=O)N[C@H](C(=O)N[C@H](C(=O)N[C@@H](CC(=O)O)C(N)=O)[C@@H](C)O)[C@@H](C)CC)[C@@H](C)O)[C@@H](C)CC)[C@@H](C)CC)[C@@H](C)CC)[C@@H](C)O [V4 (hydrolyzed)] (H-HGEGSFSDE[Nle]NTILDLLAARDFINWLIQTKITD-NH2)
Cl/F_obs [1]: 0.042 (μmol/kg)/(μmol/L)/h | Vz/F_obs [1]: 0.487 (μmol/kg)/(μmol/L) | Cl/F obs [2]: 0.034 (μmol/kg)/(μmol/L)/h | Vz/F_obs [2]: 2.19 (μmol/kg)/(μmol/L)

CCCC[C@H](NC(=O)[C@H](CCC(=O)O)NC(=O)[C@H](CC(=O)O)NC(=O)[C@H](CO)NC(=O)[C@H](Cc1ccccc1)NC(=O)[C@H](CO)NC(=O)CNC(=O)[C@H](CCC(=O)O)NC(=O)CNC(=O)[C@@H](N)Cc1c[nH]cn1)C(=O)N[C@H](Cc1ccccc1)C(=O)N[C@H](C(=O)N[C@H](C(=O)N[C@@H](CC(C)C)C(=O)N[C@@H](CC(=O)O)C(=O)N[C@@H](CC(N)=O)C(=O)N[C@@H](CC(C)C)C(=O)N[C@@H](C)C(=O)N[C@@H](C)C(=O)N[C@@H](CCCNC(=N)N)C(=O)N[C@@H](CC(=O)O)C(=O)N[C@@H](Cc1ccccc1)C(=O)N[C@H](C(=O)N[C@@H](CC(N)=O)C(=O)N[C@@H](Cc1c[nH]c2ccccc12)C(=O)N[C@@H](CC(C)C)C(=O)N[C@H](C(=O)N[C@@H](CCC(N)=O)C(=O)N[C@H](C(=O)N[C@@H](CCCCN)C(=O)N[C@H](C(=O)N[C@H](C(=O)N[C@@H](CC(=O)O)C(N)=O)[C@@H](C)O)[C@@H](C)CC)[C@@H](C)O)[C@@H](C)CC)[C@@H](C)CC)[C@@H](C)CC)[C@@H](C)O [Variant 2] (H-HGEGSFSDE[Nle][dF]TILDNLAARDFINWLIQTKITD-NH2)
EC50 Ratio to Teduglutide (GLP-2 receptor [3]; Table 7): 6.4 | Solubility via appearance [4]: V2: opaque | Stability via RP-HPLC main peak [4]: V2: −30%

CCCC[C@H](NC(=O)[C@H](CCC(=O)O)NC(=O)[C@H](CC(=O)O)NC(=O)[C@H](CO)NC(=O)[C@H](Cc1ccccc1)NC(=O)[C@H](CO)NC(=O)CNC(=O)[C@H](CCC(=O)O)NC(=O)CNC(=O)[C@@H](N)Cc1c[nH]cn1)C(=O)N[C@H](Cc1ccccc1)C(=O)N[C@H](C(=O)N[C@H](C(=O)N[C@@H](CC(C)C)C(=O)N[C@@H](CC(=O)O)C(=O)N[C@@H](CC(C)C)C(=O)N[C@@H](CC(C)C)C(=O)N[C@@H](C)C(=O)N[C@@H](C)C(=O)N[C@@H](CCCNC(=N)N)C(=O)N[C@@H](CC(=O)O)C(=O)N[C@@H](Cc1ccccc1)C(=O)N[C@H](C(=O)N[C@@H](CC(N)=O)C(=O)N[C@@H](Cc1c[nH]c2ccccc12)C(=O)N[C@@H](CC(C)C)C(=O)N[C@H](C(=O)N[C@@H](CCC(N)=O)C(=O)N[C@H](C(=O)N[C@@H](CCCCN)C(=O)N[C@H](C(=O)N[C@H](C(=O)N[C@@H](CC(=O)O)C(N)=O)[C@@H](C)O)[C@@H](C)CC)[C@@H](C)O)[C@@H](C)CC)[C@@H](C)CC)[C@@H](C)CC)[C@@H](C)O [Variant 9] (H-HGEGSFSDE[Nle][dF]TILDLLAARDFINWLIQTKITD-NH2)
Solubility via appearance [4]: V9: clear | Stability via RP-HPLC main peak [4]: V9: −1.5%

H-HGEGTFSSELATILDALAARDFIAWLIATKITDKKKKKK-NH2 [Variant 10, NH2-HG^2E^3GT^5FSS^8EL^10A^11TILDA^16LAAR20DFIA^24WLIA^28TKITDK^34K^35K^36K^37K^38K^39- NH2, reference compound]
EC50 Ratio to Teduglutide (GLP-2 receptor [3]; [6]): 9.4 | EC50 Ratio to Variant 4 (GLP-2 receptor [3]; [6]): 5.3

HGEGTFSSELATILDALAARDFIAWLIATKITDKKKKKK-NH2 [Variant 10, NH2-HG^2E^3GT^5FSS^8EL^10A^11TILDA^16LAAR20DFIA^24WLIA^28TKITDK^34K^35K^36K^37K^38K^39- NH2, reference compound]
EC50 (GLP-2 receptor [3]; EC50 (nM) Average, average of 3 independent CBA, different GLP-2R Assay Kit lot (Table 8)): 5.4 nM

B1: GLP-2 Variant #2 (peptide)
peptide: H-HGEGSFSDE[Nle][dF]TILDNLAARDFINWLIQTKITD-NH2
SMILES: CCCC[C@H](NC(=O)[C@H](CCC(=O)O)NC(=O)[C@H](CC(=O)O)NC(=O)[C@H](CO)NC(=O)[C@H](Cc1ccccc1)NC(=O)[C@H](CO)NC(=O)CNC(=O)[C@H](CCC(=O)O)NC(=O)CNC(=O)[C@@H](N)Cc1c[nH]cn1)C(=O)N[C@H](Cc1ccccc1)C(=O)N[C@H](C(=O)N[C@H](C(=O)N[C@@H](CC(C)C)C(=O)N[C@@H](CC(=O)O)C(=O)N[C@@H](CC(N)=O)C(=O)N[C@@H](CC(C)C)C(=O)N[C@@H](C)C(=O)N[C@@H](C)C(=O)N[C@@H](CCCNC(=N)N)C(=O)N[C@@H](CC(=O)O)C(=O)N[C@@H](Cc1ccccc1)C(=O)N[C@H](C(=O)N[C@@H](CC(N)=O)C(=O)N[C@@H](Cc1c[nH]c2ccccc12)C(=O)N[C@@H](CC(C)C)C(=O)N[C@H](C(=O)N[C@@H](CCC(N)=O)C(=O)N[C@H](C(=O)N[C@@H](CCCCN)C(=O)N[C@H](C(=O)N[C@H](C(=O)N[C@@H](CC(=O)O)C(N)=O)[C@@H](C)O)[C@@H](C)CC)[C@@H](C)O)[C@@H](C)CC)[C@@H](C)CC)[C@@H](C)CC)[C@@H](C)O
EC50 Ratio to Teduglutide, CBA (GLP-2 receptor [5]): 6.4 fold | EC50 [nM], Cell Based Assay (CBA), cells overexpressing the GLP-2 receptor (GLP-2 receptor [5]): 36.1 nM

B2: GLP-2 Variant #6 (peptide)
peptide: H-HGEGSFSDE[Nle]NTILDLLAARDFINWLIQTKITD-OH
SMILES: CCCC[C@H](NC(=O)[C@H](CCC(=O)O)NC(=O)[C@H](CC(=O)O)NC(=O)[C@H](CO)NC(=O)[C@H](Cc1ccccc1)NC(=O)[C@H](CO)NC(=O)CNC(=O)[C@H](CCC(=O)O)NC(=O)CNC(=O)[C@@H](N)Cc1c[nH]cn1)C(=O)N[C@@H](CC(N)=O)C(=O)N[C@H](C(=O)N[C@H](C(=O)N[C@@H](CC(C)C)C(=O)N[C@@H](CC(=O)O)C(=O)N[C@@H](CC(C)C)C(=O)N[C@@H](CC(C)C)C(=O)N[C@@H](C)C(=O)N[C@@H](C)C(=O)N[C@@H](CCCNC(=N)N)C(=O)N[C@@H](CC(=O)O)C(=O)N[C@@H](Cc1ccccc1)C(=O)N[C@H](C(=O)N[C@@H](CC(N)=O)C(=O)N[C@@H](Cc1c[nH]c2ccccc12)C(=O)N[C@@H](CC(C)C)C(=O)N[C@H](C(=O)N[C@@H](CCC(N)=O)C(=O)N[C@H](C(=O)N[C@@H](CCCCN)C(=O)N[C@H](C(=O)N[C@H](C(=O)N[C@@H](CC(=O)O)C(=O)O)[C@@H](C)O)[C@@H](C)CC)[C@@H](C)O)[C@@H](C)CC)[C@@H](C)CC)[C@@H](C)CC)[C@@H](C)O
EC50 Ratio to Teduglutide, CBA (GLP-2 receptor [5]): 3.8 fold | EC50 [nM], Cell Based Assay (CBA), cells overexpressing the GLP-2 receptor (GLP-2 receptor [5]): 21.7 nM
